# In patent US9102617B2, “Antimicrobial agents” (Rutgers, The State University of New Jersey, priority 2010, dated 2015):
# Read-outs that look alike come from different tables or passages of the source.
# How the values were obtained:
# [1] = biological target: T1, S. aureus FtsZ (Staphylococcus aureus, UniProt P0A031); assay: Inhibition of S. aureus FtsZ polymerization and GTPase activity (Tests A and B); type: biochemical
# T1 sequence (P0A031 1-390): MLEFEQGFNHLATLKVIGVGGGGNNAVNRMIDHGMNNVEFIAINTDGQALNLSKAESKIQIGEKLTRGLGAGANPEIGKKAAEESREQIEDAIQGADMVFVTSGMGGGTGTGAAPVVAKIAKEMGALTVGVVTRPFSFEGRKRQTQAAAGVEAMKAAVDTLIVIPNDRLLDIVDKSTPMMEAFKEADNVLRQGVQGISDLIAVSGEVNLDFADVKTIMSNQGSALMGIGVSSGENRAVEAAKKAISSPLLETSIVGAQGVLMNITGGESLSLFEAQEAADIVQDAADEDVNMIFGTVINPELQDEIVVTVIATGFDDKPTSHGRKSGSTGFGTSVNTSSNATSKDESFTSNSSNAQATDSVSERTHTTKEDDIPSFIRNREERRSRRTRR
# Description: Test A. Determining the Impact of the Compounds of the Invention on FtsZ Polymerization Dynamics.
# Compound-induced alteration in FtsZ polymerization dynamics can be tested using a light scattering-based […] using purified FtsZ. Upon addition of GTP, FtsZ self-associates to form polymeric structures that scatter light at 340 nm to a greater extent than the monomeric protein. The impact of the compounds of the invention on the polymerization dynamics of FtsZ can be detected by an increase of decrease in the extent of GTP-induced light scattering relative to that observed in the absence of compound. Quantitation of the overall extent of light scattering as a function of compound concentration to yield a compound concentration at which FtsZ polymerization is inhibited by 50% (IC50) provides an indication of the potency of that compound at altering FtsZ polymerization dynamics.
# Test B. Determining the FtsZ GTPase Inhibitory Activities of Compounds of the Invention.
# Compound-induced inhibition of the FtsZ GTPase activity can be tested using a colorimetric assay in which the inorganic phosphate (Pi) released upon FtsZ-catalyzed hydrolysis of GTP reacts with malachite green and molybdate under acidic conditions to form a ternary complex that absorbs light at 650 nm, thus enabling quantitation of Pi levels by recording the absorbance at 650 nm (A650). Differing concentrations of test compound are combined with GTP and the reactions (run in triplicate) are initiated by addition of FtsZ. After incubation for 60 minutes at room temperature, the reactions are stopped by addition of an acidic malachite green-molybdate solution containing malachite green oxalate, sodium molybdate, Triton X-100, and 0.7 N HCl. For the purposes of generating a standard curve, each experiment includes reactions containing known concentrations of monobasic potassium phosphate (KH2PO4) in place of FtsZ. Ten minutes following addition of the acidic malachite green-molybdate solution, the A650 value for each reaction is recorded. A standard curve of A650 versus Pi concentration is constructed using the average A650 value obtained for each known KH2PO4 concentration. This standard curve is then fit by linear regression analysis to yield the quantitative relationship between A650 and Pi concentration. The resulting relationship as well as the average A650 value for each test reaction is used to calculate the concentrations of Pi released by the GTPase activity of FtsZ. The released Pi concentration in the absence of test compound is set as the mark for 100% GTPase activity, and is used to calculate the percent GTPase activities in reactions containing test compounds. The percent GTPase activity is then plotted as a function of log (compound concentration), with the resulting curves being fit using an appropriate sigmoidal relationship to obtain the compound concentrations at which GTPase activity is inhibited by 50% (IC50 values).
# [2] = system: methicillin-resistant Staphylococcus aureus (MRSA); assay: Planktonic antibacterial broth microdilution assay (Test C), MIC vs MRSA; type: cell-based; settings: read-out: MIC vs MRSA
# Experimental: (§1) Test C. Planktonic (Free-Living) Antibacterial Assay.
# (§2) Planktonic antibacterial activity can be determined using a broth microdilution assay in which log-phase bacteria are grown at 37° C. in appropriate medium containing two-fold serial dilutions of a compound to yield a final concentration ranging from 256 to 0.1 μg/ml. For determination of minimal inhibitory concentration (MIC) values, bacterial growth is monitored after 24 to 48 hours by measuring optical density at 600 nm. […] The minimal inhibitory concentration against methicillin-sensitive Staphylococcus aureus (MSSA) for each of the following representative compounds of the invention was determined to be less than 32 μg/ml.
# Representative compounds of the invention were also tested against methicillin-resistant Staphylococcus aureus, vancomycin-resistant Enterococcus faecalis and Enterococcus faecium (VRE), vancomycin-sensitive Enterococcus faecalis and Enterococcus faecium (VSE).
# [3] = system: methicillin-sensitive Staphylococcus aureus (MSSA); assay: Planktonic antibacterial broth microdilution assay (Test C), MIC vs MSSA; type: cell-based; settings: 37° C., growth read after 24 to 48 hours at OD 600 nm
# Experimental: as §1, §2
SMILES,"IC50 ([1]; S. aureus FtsZ, polymerization and/or GTPase activity, read-out: IC50 (compound concentration at which FtsZ polymerization and/or GTPase activity is inhibited by 50%)) [µM]","MIC ([2]; broth microdilution, 37° C., growth read after 24 to 48 hours at OD 600 nm) [µg/mL]",MIC [3] [µg/mL],IC50 [1] [µM],MIC [2] [µg/mL]
CC(C)(C)c1ccc(-c2cccc3cc(-c4ccccc4C[N+](C)(C)C)ccc23)cc1.[I-] [Example 63],< 93.4,≤ 8,≤ 8,,
C[n+]1ccc2c(-c3ccc(-c4ccccc4)cc3)cccc2c1.[I-] [Example 112],,,≤ 8,< 118,32
